The test system of assay [1] is Jurkat cells. The assay can be described thus: Jurkat cell adhesion system (adhesion to immobilized human fibronectin, PMA-stimulated). It counts as cell-based. To be noted: concentration inhibiting by 50% the PMA-stimulated increase in the number of adhered Jurkat cells on human fibronectin, 45-60 minutes, 37° C. Here is the method:
Evaluation of Compounds in Jurkat Cell Adhesion System
<Immobilization of Human Fibronectin in 96-Well Plate>
Human fibronectin (Becton Dickinson Biosciences) was diluted with phosphate-buffered saline (hereinafter abbreviated as PBS; Sigma) to 0.1-0.01 μg/ml, and the diluted solution was added to a 96-well plate (Becton Dickinson) at 50 μl/well, and allowed to stand overnight at 4° C. On the following day, the supernatant was removed from the plate, and then PBS containing 1% bovine serum albumin (hereinafter abbreviated as BSA; Sigma) was added thereto at 100 μl/well and incubation was performed at 37° C. for 2 hours in a CO2 incubator (Hirasawa).
The supernatant was removed from each plate and Jurkat cells suspended in RPMI-1640 (Sigma) containing 1 mg/ml BSA were added at 80 μl/well for 2.5×10^5 cells/well. The compound diluted to different concentrations with RPMI-1640 containing 1 mg/ml BSA was immediately added at 10 μl/well, and then 100 nM phorbol myristate acetate (hereinafter abbreviated as PMA; Sigma) in RPMI-1640 containing 1 mg/ml BSA was added at 10 μl/well and the plate was incubated in a CO2 incubator at 37° C. for 45-60 minutes. The supernatant was removed from the plate and each well was washed several times with 100 μl/well of RPMI-1640, after which 50 mM citrate buffer (pH 5.0) containing 3.75 mM p-nitrophenol-N-acetyl-β-D-glucosaminide (Sigma) and 0.25% Triton X-100 (Sigma) were added at 60 μl/well, and the mixture was placed in a CO2 incubator and incubated at 37° C. for 45 minutes. After incubation, 50 mM glycine buffer (pH 10.4) containing 5 mM EDTA was added at 90 μl/well, and the absorbance at 405 nm was measured with an EL340 Automated Microplate Reader (BIO-TEK) to determine the adhered cell count. The concentration of each compound which inhibited the increase in the number of adhered cells by the PMA-stimulation by 50% was recorded as the IC50 (μM).

Assay [2] deals with human peripheral blood neutrophils. The assay can be described thus: Human peripheral blood neutrophil adhesion system (adhesion to immobilized HUVEC, PMA-stimulated). It counts as cell-based. As to conditions: 0.75 h, concentration inhibiting by 50% the PMA-stimulated increase in the number of adhered BCECF-AM labeled neutrophils on HUVEC immobilized plate, 45 minutes, 37° C. Here is the method: Evaluation of Compounds in Human Peripheral Blood Neutrophil Adhesion System
<Preparation of Human Peripheral Blood Neutrophils>
To a plastic centrifugation tube containing 100 units of heparin sodium (Shimizu Pharmaceutical) was added 25 ml of fresh blood sampled from a healthy human. After adding and mixing therewith 8 ml of physiological saline (Otsuka Pharmaceutical) containing 6% Dextran (Nacalai), the mixture was allowed to stand at room temperature for 45 minutes for sedimentation of the erythrocytes. The resultant supernatant was transferred to another plastic centrifugation tube and combined with an equivalent volume of phosphate-buffered saline (hereinafter abbreviated as PBS; Sigma), and then centrifuged at 1600 rpm for 7 minutes at room temperature. The obtained hematocyte fraction was suspended in 4 ml of PBS, and the suspension was superposed on 4 ml of Ficoll-Paque™ PLUS (Amersham Biosciences). The resultant bilayer liquid was centrifuged at 2000 rpm for 30 minutes at room temperature, after which the supernatant was removed and the precipitate was suspended in 10 ml of PBS and centrifuged at 1200 rpm for 7 minutes, and the supernatant was removed. The resulting precipitate was suspended in 0.5 ml of PBS again, and then 10 ml of distilled water (Otsuka Pharmaceutical) was added, 0.5 ml of an aqueous solution containing 3 M NaCl was immediately added to restore isotonicity, the mixture was centrifuged at 1200 rpm for 7 minutes, and the obtained precipitate was suspended in PBS containing 1 mg/ml bovine serum albumin (hereinafter abbreviated as BSA; Sigma) again and stored in ice until being used for the experiment.
<Fluorescent Labeling of Human Peripheral Blood Neutrophils>
The obtained neutrophils were suspended in PBS containing 1 mg/ml BSA at 2×10^7 cells/ml. BCECF-AM (Dojin) was added to a final concentration of 5 μM, and the mixture was incubated at 37° C. for 45 minutes. It was then rinsed twice with PBS containing 1 mg/ml BSA by centrifugation, suspended again in PBS containing 1 mg/ml BSA at 5×10^7 cells/ml, and stored in ice until use.
<Preparation of HUVEC Immobilized Plate>
Human umbilical vein endothelial cells (hereinafter abbreviated as HUVEC) were suspended in MCDB131 medium (Chlorella Industries) containing 10% fetal calf serum and 30 μg/ml endothelial cell growth supplement (Becton Dickinson Bioscience). The suspension was added at 7.5×10^3 cells/well to a 96-well plate (Iwaki) immobilized with type I collagen, and cultured for 3 days in a CO2 incubator (Hirasawa). Upon confirming confluency of the cells, the supernatant was discarded, the plate was rinsed twice with PBS, and then PBS containing 0.1% glutaraldehyde (Kanto Kagaku) was added at 100 μl/well and the HUVECs were immobilized for 5 minutes. The supernatant was discarded and the plate was washed twice with PBS, and then PBS was added at 100 μl/well and the mixture was stored at 4° C. until use.
To 6.5 ml of RPMI-1640 medium (Sigma) containing 1 mg/ml of BSA were added 0.5 ml of a suspension of BCECF-AM labeled neutrophils at 5×10^7/ml stored in ice, which was mixed, and the mixture was added at 80 μl/well to a HUVEC immobilized plate. To this plate were immediately added 10 μl/well of a solution of the compound diluted at different concentrations with RPMI-1640 containing 1 mg/ml BSA, and 10 μl/well of 100 nM phorbol myristate acetate (hereinafter abbreviated as PMA; Sigma) in RPMI-1640 containing 1 mg/ml BSA, and the mixture was incubated in a CO2 incubator at 37° C. for 45 minutes. The supernatant was removed from the plate, which was then washed several times with RPMI-1640 at 100 μl/well, and then PBS containing 0.1% NP-40 (Calbiochem) was added thereto at 100 μl/well and the fluorescent intensity was measured with and ARVO™SX 1420 multi label counter (Wallac) to determine the number of adhered cells. […]

Assay [3] concerns Balb/c mice. The assay can be described thus: DSS-induced colitis model. Format: in vivo. To be noted: male Balb/c mice; 1-3% DSS for 5-7 days; 30 mg/kg orally once a day for 5-7 successive days. An excerpt: Evaluation of Compounds in DSS-Induced Colitis Model
A 1-3% solution of dextran sulfate sodium (hereinafter abbreviated as DSS; ICN) in purified water (Otsuka Pharmaceutical) was fed freely to 6- to 7-week-old male Balb/c mice (Charles River Japan) for 5-7 days to induce colitis. Disease Activity Index (hereinafter abbreviated as DAI) scored based on fecal hardness, blood content in feces and body weight change, the number of neutrophils infiltrating the colon and the length of the colon were used as indexes to evaluate compounds. Each compound was suspended or dissolved in an aqueous solution containing 0.5% methyl cellulose (Wako), and orally administered at 30 mg/kg once a day, for 5-7 successive days.

The structures appear in SMILES notation. Where a name gives a salt, the structure may show the parent alone.

With `CCC(=O)CN1CCN(c2ccc(N3CCOCC3)cc2C2=CCC(CC)(CC)CC2)CC1.Cl` [Example 30, 1-{4-[2-(4,4-Diethylcyclohex-1-enyl)-4-morpholin-4-ylphenyl]piperazin-1-yl}butan-2-one hydrochloride], the results for the IC50 in assay [1] and in assay [2] were 5.5 µM and 16.9 µM, respectively. Further, the “improvement in comparison with the DSS control group (DAI, number of neutrophils infiltrating the colon, length of the colon)” value (from here on “improvement in comparison”) in assay [3] is listed as “particularly good improvement”.

As to `CCCCN1CCN(c2ccccc2/C2=C/CCCCCC2)CC1` [Example 47, 1-Butyl-4-(2-cyclooct-1-enylphenyl)piperazine hydrochloride], the half-inhibitory concentration (IC50) in assay [1] (Homo sapiens, Jurkat) was 5 µM; in assay [2] (HUVEC) it was 11.8 µM.

In the case of `COc1ccc(N2CCN(CC3CCOCC3)CC2)c(C2CC(C)(C)CC(C)(C)C2)c1` [Example 85, 1-[4-Methoxy-2-(3,3,5,5-tetramethylcyclohexyl)phenyl]-4-(tetrahydropyran-4-ylmethyl)piperazine hydrochloride], the IC50 was 6.4 µM in assay [1] and 16.4 µM in assay [2].

Regarding `CCCCCN1CCN(c2cc(OC)ccc2C2CCC(C)(C)CC2)CC1.Cl` [Example 1, 1-[2-(4,4-Dimethylcyclohexyl)-5-methoxyphenyl]-4-pentylpiperazine hydrochloride], the values for the IC50 in assay [1] and in assay [2] were 4.5 µM and 9.1 µM, respectively. Further, in assay [3], the “improvement in comparison” value is listed as “particularly good improvement”.

Consider `CCCCN1CCN(c2ccc(N3CCC(OC)CC3)cc2C2CC(C)(C)CC(C)(C)C2)CC1.Cl` [Example 32, 1-Butyl-4-[4-(4-methoxypiperidin-1-yl)-2-(3,3,5,5-tetramethylcyclohexyl)phenyl]piperazine hydrochloride], for which the IC50 in assay [1] amounted to 3.6 µM; in assay [2], 7 µM. Also, the “improvement in comparison” value in assay [3] was “particularly good improvement”.

Take `CCCCN1CCN(c2ccc(N3CCOCC3)cc2C2=CCC(C(C)(C)C)CC2)CC1.Cl` (racemic) [Example 18, 4-[3-(4-t-Butylcyclohex-1-enyl)-4-(4-butylpiperazin-1-yl)phenyl]morpholine hydrochloride]: the IC50 in assay [1] amounted to 2.6 µM; in assay [2], 12.1 µM. Besides, the “improvement in comparison” value in assay [3] is “particularly good improvement”.

In the case of `CCC(=O)CN1CCN(c2ccccc2C2CCC(C)(C)CC2)CC1.Cl` [Example 17, 1-{4-[2-(4,4-Dimethylcyclohexyl)phenyl]piperazin-1-yl}butan-2-one hydrochloride], the results for the IC50 in assay [1] and in assay [2] were 6.1 µM and 17.9 µM, respectively. The “improvement in comparison” value in assay [3] was “particularly good improvement”.

For the compound `COC1CCN(c2ccc(N3CCN(CC4CC4)CC3)c(C3=CCC(C(C)(C)C)CC3)c2)CC1.Cl` (racemic) [Example 20, 1-[2-(4-t-Butylcyclohex-1-enyl)-4-(4-methoxypiperidin-1-yl)phenyl]-4-cyclopropylmethylpiperazine hydrochloride], the IC50 in assay [1] came to 7.7 µM; in assay [2], 6.1 µM. Besides, the “improvement in comparison” value in assay [3] is “particularly good improvement”.

As for `COCCN1CCN(c2ccc(N3CCC(OC)CC3)cc2C2=CCC3(CCCCC3)CC2)CC1` [Example 48, 1-(2-Methoxyethyl)-4-[4-(4-methoxypiperidin-1-yl)-2-spiro[5.5]undec-2-en-3-ylphenyl]piperazine hydrochloride], the figures for the 50% inhibitory concentration (IC50) in assay [1] and in assay [2] were 7.9 µM and 4.9 µM, respectively.

Regarding `CCCN1CCN(c2ccccc2C2CC(C)(C)CC(C)(C)C2)CC1.Cl` [Example 31, 1-Propyl-4-[2-(3,3,5,5-tetramethylcyclohexyl)phenyl]piperazine hydrochloride], the IC50 worked out at 4.5 µM in assay [1] and 9.5 µM in assay [2]. Further, in assay [3], the “improvement in comparison” value is “particularly good improvement”.

Take `CC1(C)CCC(c2ccccc2N2CCN(Cc3ccoc3)CC2)CC1` [Example 69, 1-[2-(4,4-Dimethylcyclohexyl)phenyl]-4-furan-3-ylmethylpiperazine hydrochloride]: the values for the half-inhibitory concentration (IC50) in assay [1] and in assay [2] were 3.6 µM and 9.4 µM, respectively.

Consider `CCCCN1CCC(c2ccccc2C2CC(C)(C)CC(C)(C)C2)CC1` [Example 103, 1-Butyl-4-[2-(3,3,5,5-tetramethylcyclohexyl)phenyl]piperidine hydrochloride], for which the half-maximal inhibitory concentration (IC50) in assay [1] worked out at 4.5 µM; in assay [2] it was 19.3 µM.

As to `CC1(C)CC(c2ccccc2N2CCN(CC3CC3)CC2)CC(C)(C)C1` [Example 117, 1-Cyclopropylmethyl-4-[2-(3,3,5,5-tetramethylcyclohexyl)phenyl]piperazine methanesulfonate], the values for the IC50 in assay [1] and in assay [2] were 4.7 µM and 7.1 µM, respectively.

`CC(C)CN1CCN(c2ccccc2C2=CCC3(CC2)CC3)CC1.Cl` [Example 34, 1-Isobutyl-4-(2-spiro[2.5]oct-5-en-6-ylphenyl)piperazine hydrochloride]: the “improvement in comparison” value in assay [3] was “particularly good improvement”.

As usually defined, the IC50 is the concentration at which inhibition is half-maximal. Low values mean inhibition by little substance, high ones a need for much substance.

(Values after patent US20060276465A1, “1,2-di(cyclic) substituted benzene compounds” (Eisai R&D Management Co., Ltd., priority 2003, published 2006).)
